The values that follow are results of earlier work, collected in patent publication US7442709B2, “N3-substituted imidazopyridine c-Kit inhibitors” (OSI Pharmaceuticals, Inc., priority 2003, dated 2008).

In data set [1] the test system is MO7e human leukemia cells. The conditions noted are these: GM-CSF stimulation.
In data set [2] the test system is MO7e human leukemia cells.

Where a name gives a salt, the structure may show the parent alone.

Turning to `Cc1ccc(NC(=O)c2ccc(CN3CCN(C)CC3)cc2)cc1Nc1nccc(-c2cccnc2)n1` [Gleevec, imatinib mesylate], the “GM-CSF stimulated growth of MO7e human leukemia cells” value in data set [1] was “not affected”. In data set [2] (Kit ligand stimulation), the “Kit ligand-stimulated growth of MO7e human leukemia cells” value is recorded as “inhibited”. In addition, the “Apoptosis in MO7e human leukemia cells” value in data set [2] (under Kit ligand-stimulated growth conditions) was “induces apoptosis”.
